The values below come from US5916908A, “Pharmaceutical pyrazole compositions useful as inhibitors of protein kinases” (COR Therapeutics, Inc., priority 1995, dated 1999).

Where two headings read alike, the source gives them in different places.

The target of one test is T1, human alpha PDGFR (Homo sapiens, UniProt P16234).
T1 construct: expressed in transfected cells; host or cells: 32D-αR (mouse hematopoietic cell line 32D)
The experiment in a line: alpha PDGFR autophosphorylation in 32D-αR cells. Conditions: for inhibition of protein kinase activity of αPDGFR: compounds of Table 1B, evaluated similar to Example 1. The format is cell-based. The source says:
The stimulation of cell proliferation by growth factors such as PDGF, FGF and EGF is dependent upon their induction of autophosphorylation of each of their respective receptor's tyrosine kinases. Therefore, the ability of a PTK inhibitor to block cellular proliferation induced by these growth factors is directly correlated with its ability to block receptor autophosphorylation. To measure alpha PDGFR autophosphorylation a previously described mouse hematopoietic cell line, 32D-αR, which had been engineered to overexpresses the human alpha PDGFR was used. These cells were grown in suspension to 10^6 cells/ml in RPMI (Gibco BRL) media containing 10% fetal bovine serum and 5% WEHI conditioned media (tissue culture media conditioned by WEHI cells available from ATCC) as previously described. The cells were pelleted by low speed centrifugation and resuspended in serum-free RPMI prior to distribution at 500,000 cells/well in 96 well conical bottom microtiter plates (Falcon). Compounds (0.01-30 μM) were added to the wells at room temperature 15 minutes prior to the addition of PDGF AA (15 ng/ml) and the incubation was continued on ice for 90 minutes in a final incubation volume of 100 μl. The cells were then pelleted at 2000 rpm for 10 minutes at 4° C. and 50 μl of freshly prepared lysis buffer (20 mM Tris at pH 7.3, 150 mM NaCl, 1% Triton X-100, 1 mM phenylmethyl-sulfonyl fluoride (PMSF), 1 mM sodium orthovanadate, […] and 10 mg/ml leupeptin) was added directly to each well, incubation was continued for 10 minutes on ice and cell lysis was facilitated by vigorous agitation on a plate shaker. The cell lysates were cleared by centrifugation at 2,000 rpm for 10 minutes prior to analysis.
In a separate microtiter plate, monoclonal antibodies (prepared at COR Therapeutics, Inc.) directed against the extracellular domain of the alpha PDGFR (MAb αR10) or the beta PDGFR (MAb 1B5B11) were immobilized by incubating 0.5 μg of antibody per well at 4° C. for 18 hours in 23 mM Tris at pH 8.0, 68 mM NaCl, 14 mM ammonium bicarbonate and 0.01% sodium azide. Unbound antibody was removed and the wells were blocked with 25 mM N-(2-hydroxyethyl)piperazine-N'-(2-ethanesulfonic acid) (HEPES) pH 7.6, 100 mM NaCl, and 0.2% Tween 20 just prior to the addition of cell lysate that had been diluted 1:2 in binding buffer (blocking buffer with 0.3% gelatin). 32D-αR or HR5-βR cell lysate was incubated with immobilized MAb αR10 or MAb 1B5B11, respectively, for 2 hours at room temperature and wells were washed 3 times with 200 μl of wash buffer (phosphate buffered saline "PBS", 0.01% Tween 20). […] Product formation was monitored at 650 nm using a microtiter plate reader (Molecular Devices).

The test system of another test is WS1 cells. The experiment in a line: inhibition of cell proliferation under normal tissue culture conditions, WS1. To be noted: Homo sapiens, WS1, 96 h, read-out: IC50 WS1.
Test [1] deals with human cell lines (HS68, HS 27, CCD18, WS1). The experiment in a line: inhibition of proliferation of human cell lines under standard tissue culture conditions (collective statement).
The test system of a further test is Protein Kinase C (PKC). The experiment in a line: Protein Kinase C assay (non-radioactive). Conditions: 40 μM.
A further test addresses src-kinase (Homo sapiens, UniProt P12931). The experiment in a line: inhibition of recombinant c-src kinase. Conditions: for potency on src kinase activity compared with PDGFR kinase activity: src vs PDGFR.
The subject of another test is HS27 cells. The experiment in a line: inhibition of cell proliferation under normal tissue culture conditions, HS27. Conditions: Homo sapiens, HS27, 96 h, read-out: IC50 HS27.
Another test has as its target human beta PDGFR (Homo sapiens, UniProt P09619). The experiment in a line: beta PDGFR autophosphorylation in HR5-βR cells. To be noted: for inhibition of protein kinase activity of βPDGFR: compounds of Table 1B, evaluated similar to Example 1.
Another test has as its target T2, human FGFR-1 (Homo sapiens, UniProt P11362).
T2 construct: expressed in transfected cells; host or cells: CHO
The experiment in a line: FGFR-1 autophosphorylation in CHO cells. The format is cell-based. The procedure:
In order to measure FGFR-1 autophosphorylation, the human FGFR-1 cDNA was stably over-expressed in CHO cells using standard techniques. These cells were grown to confluency in RPMI with 10% fetal bovine serum, the media was replaced with serum-free RPMI and incubation continued for 18 hours prior to stimulation with βFGF (75 ng/ml) for 10 min. at 37° C. in the absence or presence of PTK inhibitors in a concentration range of 0.1-30 μM. Cell lysates were prepared under the same conditions as described above for the EGFR assay. Lysates were incubated with a monoclonal antibody directed against the FGFR-1 extracellular domain (MAb 1H9D3 which was prepared at COR) and the immunoprecipitated receptor was subjected to SDS-PAGE and Western blot analysis with 4G10 horse radish peroxidase conjugated antiphosphotyrosine antibodies (UBI) and detection was done by chemiluminescence (Amersham).

In a further test the test system is HS68 cells. The experiment in a line: inhibition of cell proliferation under normal tissue culture conditions, HS68. To be noted: Homo sapiens, Hs68, 96 h, read-out: IC50 HS68.
The next test has as its system 32D-αR cells. The experiment in a line: PDGF induced proliferation ([3H]thymidine incorporation) in 32D-αR cells. The format is cell-based. Conditions: Mus musculus. As to the method:
Briefly, 32D-αR cells were grown in interleukin 3 (IL-3)-conditioned RPMI media with 10% fetal bovine serum and washed 2 times with RPMI with 10% fetal bovine serum, resuspended at 5×10^5 cells/ml in the same media and then dispensed at 250 μl/well in 24 well plates (Falcon). […] The cells were incubated for 43 hours followed for a further 3 hour incubation with [^3 H]thymidine (10 μCi/well). The cells are then harvested with an automated cell harvester, filters are placed in liquid scintillation mixture and counted in a β counter.
For orientation: Incorporation of labelled thymidine or its analogues reports DNA synthesis.

In the next test the test system is HR5-βR cells. The experiment in a line: inhibition of cell proliferation under normal tissue culture conditions, HR5-βR. Conditions: for IC50: Cricetulus griseus.
Another test has as its target Protein Kinase A (PKA) (Homo sapiens, UniProt P17612). The experiment in a line: Protein Kinase A assay (non-radioactive).
The next test concerns CCD18 cells. The experiment in a line: inhibition of cell proliferation under normal tissue culture conditions, CCD18. The format is cell-based. To be noted: Homo sapiens, 96 h, read-out: IC50 CCD18.
Another test deals with EGFR (Homo sapiens, UniProt P00533). The experiment in a line: EGFR autophosphorylation in MDA MB 468 cells. The test is classed as cell-based. Conditions: EGF 100 ng/ml.
EGFR, sequence (P00533 25-1210): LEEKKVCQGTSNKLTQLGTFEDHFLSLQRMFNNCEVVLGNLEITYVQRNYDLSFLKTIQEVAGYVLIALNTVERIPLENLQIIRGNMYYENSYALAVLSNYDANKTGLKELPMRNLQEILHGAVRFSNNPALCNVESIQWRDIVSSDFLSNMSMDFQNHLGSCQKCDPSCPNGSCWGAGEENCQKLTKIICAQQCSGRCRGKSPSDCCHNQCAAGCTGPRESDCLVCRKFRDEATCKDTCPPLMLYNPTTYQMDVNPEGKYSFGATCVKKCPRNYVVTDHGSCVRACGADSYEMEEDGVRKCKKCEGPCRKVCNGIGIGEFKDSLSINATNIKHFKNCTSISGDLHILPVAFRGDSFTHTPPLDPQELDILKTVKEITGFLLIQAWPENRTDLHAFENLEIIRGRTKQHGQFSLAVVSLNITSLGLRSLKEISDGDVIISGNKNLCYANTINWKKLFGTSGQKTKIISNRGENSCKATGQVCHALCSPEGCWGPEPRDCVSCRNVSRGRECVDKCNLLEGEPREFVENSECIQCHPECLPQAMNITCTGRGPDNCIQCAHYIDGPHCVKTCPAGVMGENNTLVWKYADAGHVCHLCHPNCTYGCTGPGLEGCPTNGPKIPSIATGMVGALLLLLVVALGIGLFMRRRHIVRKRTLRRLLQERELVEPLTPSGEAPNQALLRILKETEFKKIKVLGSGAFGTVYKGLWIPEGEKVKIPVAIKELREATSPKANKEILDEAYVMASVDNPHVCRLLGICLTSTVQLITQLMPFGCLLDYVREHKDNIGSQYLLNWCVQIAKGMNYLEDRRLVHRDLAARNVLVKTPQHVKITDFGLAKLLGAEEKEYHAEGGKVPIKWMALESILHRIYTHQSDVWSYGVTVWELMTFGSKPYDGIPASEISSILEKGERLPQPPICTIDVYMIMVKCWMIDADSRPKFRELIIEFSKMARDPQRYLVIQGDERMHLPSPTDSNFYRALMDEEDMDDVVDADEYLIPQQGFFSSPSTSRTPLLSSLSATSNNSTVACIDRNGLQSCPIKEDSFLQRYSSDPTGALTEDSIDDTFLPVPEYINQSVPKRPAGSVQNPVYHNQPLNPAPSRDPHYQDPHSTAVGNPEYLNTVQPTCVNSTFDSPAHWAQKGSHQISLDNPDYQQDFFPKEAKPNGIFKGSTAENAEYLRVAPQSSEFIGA

src-kinase, sequence (P12931 whole entry): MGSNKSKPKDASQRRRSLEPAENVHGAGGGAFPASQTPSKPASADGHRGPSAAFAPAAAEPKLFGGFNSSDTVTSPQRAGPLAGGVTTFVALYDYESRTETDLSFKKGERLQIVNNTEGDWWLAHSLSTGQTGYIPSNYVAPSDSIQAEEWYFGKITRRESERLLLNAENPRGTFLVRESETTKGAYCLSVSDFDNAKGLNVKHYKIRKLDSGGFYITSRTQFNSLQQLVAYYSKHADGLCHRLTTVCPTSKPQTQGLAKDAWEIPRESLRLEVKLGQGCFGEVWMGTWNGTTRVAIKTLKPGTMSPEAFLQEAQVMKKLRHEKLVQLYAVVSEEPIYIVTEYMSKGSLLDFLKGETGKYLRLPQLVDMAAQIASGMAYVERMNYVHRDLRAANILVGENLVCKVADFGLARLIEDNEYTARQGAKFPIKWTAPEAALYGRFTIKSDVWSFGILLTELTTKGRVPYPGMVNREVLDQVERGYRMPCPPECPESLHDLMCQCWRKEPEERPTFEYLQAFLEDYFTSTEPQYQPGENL
human beta PDGFR, sequence (P09619 33-1106): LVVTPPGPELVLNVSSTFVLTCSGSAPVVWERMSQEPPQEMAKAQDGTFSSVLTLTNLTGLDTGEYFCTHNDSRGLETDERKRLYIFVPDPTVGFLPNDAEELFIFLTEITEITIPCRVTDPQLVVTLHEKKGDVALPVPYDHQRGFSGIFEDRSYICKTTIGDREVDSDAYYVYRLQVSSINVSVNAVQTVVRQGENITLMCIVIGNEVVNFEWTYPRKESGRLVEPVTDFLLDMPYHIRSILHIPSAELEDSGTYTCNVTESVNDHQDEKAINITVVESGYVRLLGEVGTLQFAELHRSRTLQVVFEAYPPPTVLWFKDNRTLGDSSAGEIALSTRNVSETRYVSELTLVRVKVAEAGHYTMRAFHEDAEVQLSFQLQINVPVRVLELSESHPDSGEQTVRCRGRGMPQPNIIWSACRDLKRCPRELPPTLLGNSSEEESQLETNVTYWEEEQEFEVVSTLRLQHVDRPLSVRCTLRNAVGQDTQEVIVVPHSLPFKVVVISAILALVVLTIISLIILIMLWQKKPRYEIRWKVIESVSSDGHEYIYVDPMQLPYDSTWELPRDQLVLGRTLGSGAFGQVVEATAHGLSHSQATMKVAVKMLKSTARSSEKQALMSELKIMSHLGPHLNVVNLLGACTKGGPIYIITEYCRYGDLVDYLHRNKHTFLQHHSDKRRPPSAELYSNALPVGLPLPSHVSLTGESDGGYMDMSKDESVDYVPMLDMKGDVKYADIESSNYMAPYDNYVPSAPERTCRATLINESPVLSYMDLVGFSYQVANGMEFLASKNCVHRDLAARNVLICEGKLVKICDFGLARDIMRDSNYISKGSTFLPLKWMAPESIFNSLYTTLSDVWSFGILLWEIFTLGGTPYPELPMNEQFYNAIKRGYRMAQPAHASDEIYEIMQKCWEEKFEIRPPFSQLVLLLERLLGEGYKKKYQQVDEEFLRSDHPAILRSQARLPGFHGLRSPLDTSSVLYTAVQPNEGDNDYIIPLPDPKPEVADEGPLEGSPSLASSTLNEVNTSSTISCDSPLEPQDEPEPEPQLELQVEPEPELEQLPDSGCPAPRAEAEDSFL
T1 sequence (P16234 24-1089): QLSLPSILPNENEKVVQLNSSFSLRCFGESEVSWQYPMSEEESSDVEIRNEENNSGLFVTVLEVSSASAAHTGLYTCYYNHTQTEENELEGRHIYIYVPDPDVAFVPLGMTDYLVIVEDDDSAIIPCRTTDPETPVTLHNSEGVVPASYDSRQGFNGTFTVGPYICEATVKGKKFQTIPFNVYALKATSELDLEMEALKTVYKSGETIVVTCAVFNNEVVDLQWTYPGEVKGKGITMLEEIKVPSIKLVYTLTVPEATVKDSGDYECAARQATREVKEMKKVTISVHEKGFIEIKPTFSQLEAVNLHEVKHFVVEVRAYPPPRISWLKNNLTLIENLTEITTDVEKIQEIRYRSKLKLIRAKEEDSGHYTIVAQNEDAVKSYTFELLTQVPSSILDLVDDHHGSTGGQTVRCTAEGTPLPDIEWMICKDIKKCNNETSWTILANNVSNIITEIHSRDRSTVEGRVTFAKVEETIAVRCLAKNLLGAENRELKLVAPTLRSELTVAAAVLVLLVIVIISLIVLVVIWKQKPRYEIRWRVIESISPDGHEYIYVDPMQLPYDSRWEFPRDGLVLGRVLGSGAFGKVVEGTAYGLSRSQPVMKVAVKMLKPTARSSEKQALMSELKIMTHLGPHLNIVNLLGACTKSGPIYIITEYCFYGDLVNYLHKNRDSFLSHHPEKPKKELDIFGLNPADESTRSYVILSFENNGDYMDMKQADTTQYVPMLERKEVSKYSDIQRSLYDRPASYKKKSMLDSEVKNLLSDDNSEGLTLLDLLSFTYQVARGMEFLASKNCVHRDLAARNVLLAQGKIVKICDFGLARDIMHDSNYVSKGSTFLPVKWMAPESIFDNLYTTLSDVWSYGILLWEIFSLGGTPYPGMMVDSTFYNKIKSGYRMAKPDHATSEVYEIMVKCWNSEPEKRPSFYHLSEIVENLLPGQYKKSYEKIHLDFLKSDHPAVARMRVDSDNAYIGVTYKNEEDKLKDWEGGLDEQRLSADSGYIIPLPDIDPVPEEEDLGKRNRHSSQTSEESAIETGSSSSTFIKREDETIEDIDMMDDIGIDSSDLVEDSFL
T2 sequence (P11362 22-822): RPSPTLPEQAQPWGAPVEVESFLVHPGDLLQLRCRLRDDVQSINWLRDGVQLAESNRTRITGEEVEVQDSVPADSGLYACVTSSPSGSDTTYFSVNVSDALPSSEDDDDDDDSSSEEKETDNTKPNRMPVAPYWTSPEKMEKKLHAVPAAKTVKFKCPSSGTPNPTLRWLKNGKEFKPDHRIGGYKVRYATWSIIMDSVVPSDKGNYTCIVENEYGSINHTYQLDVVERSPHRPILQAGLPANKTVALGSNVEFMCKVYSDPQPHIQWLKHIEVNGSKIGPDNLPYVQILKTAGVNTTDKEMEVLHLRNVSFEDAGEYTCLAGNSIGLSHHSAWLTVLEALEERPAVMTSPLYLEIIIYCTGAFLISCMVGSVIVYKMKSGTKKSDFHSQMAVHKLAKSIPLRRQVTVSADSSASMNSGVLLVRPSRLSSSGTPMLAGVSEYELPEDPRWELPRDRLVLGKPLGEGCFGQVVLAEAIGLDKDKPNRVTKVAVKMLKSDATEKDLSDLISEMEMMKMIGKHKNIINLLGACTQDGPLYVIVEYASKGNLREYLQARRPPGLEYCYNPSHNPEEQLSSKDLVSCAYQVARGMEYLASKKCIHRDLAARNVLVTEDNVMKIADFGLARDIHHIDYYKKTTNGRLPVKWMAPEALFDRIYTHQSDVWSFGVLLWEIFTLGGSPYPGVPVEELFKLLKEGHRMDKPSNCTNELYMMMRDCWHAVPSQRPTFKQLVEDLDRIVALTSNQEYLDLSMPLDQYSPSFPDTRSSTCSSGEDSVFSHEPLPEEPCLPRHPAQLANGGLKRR
Protocol for EGFR: These cells were grown to confluency in 6-well plates and incubated in serum-free Dulbecco's Modified Eagle Medium (DMEM) 18 hours. The cells were exposed to various concentrations (0.01-30 μM) of compounds for 15 minutes and then to EGF (100 ng/ml) for 10 minutes at 37° C. The cells were scraped and lysates were prepared in the same buffer as described for 32D-αR cells prior to fractionation by conventional SDS PAGE followed by Western blot analysis. For this, proteins were transferred onto nitrocellulose and the membrane was blocked in Tris buffer saline (TBS), pH 7.0, 0.1% Tween 20, 5% dry milk. The membrane was blotted with anti-phosphotyrosine antibody (UBI, 1 μg/ml) in binding buffer (TBS, 0.1% Tween 20; 1% dry milk) for 2 hours at room temperature. Detection was performed using a goat anti-rabbit-horseradish peroxidase conjugated IgG (Boehringer Mannheim). The blot was developed using a chemiluminescent system (Amersham).

As to `O=C(Nc1cc(-c2ccccc2)[nH]n1)c1ccccc1` [Compound 1, 3-benzoylamino-5-phenylpyrazole], the IC50 on human alpha PDGFR (Table 2, autophosphorylation, 32D-αR cells, PDGF AA 15 ng/ml, read-out: IC50 αPDGFR) is 170 nM; with WS1 cells, greater than 30000 nM; at src-kinase, 8000 nM; in the test on HS27 cells, greater than 30000 nM; on human beta PDGFR, 220 nM; at human FGFR-1 (Table 2, autophosphorylation, CHO cells, βFGF 75 ng/ml), greater than 30000 nM. For the same molecule, the IC50 was greater than 30000 nM in the test with HS68 cells; 700 nM in the test on 32D-αR cells (read-out: concentration blocking PDGF induced thymidine incorporation by 50%); 28000 nM in the test on HR5-βR cells (96 h, read-out: IC50 HRS-βR); greater than 40000 nM at Protein Kinase A (PKA); greater than 30000 nM with CCD18 cells. Moreover, the “inhibition of alpha PDGFR autophosphorylation” value against human alpha PDGFR (compared with beta receptor) is on record as “inhibit alpha PDGFR autophosphorylation over the same concentration range as that observed for the beta receptor”. Further, the inhibition at 30 µM in [1] (Homo sapiens, 96 h, read-out: decrease in cell growth of human cell lines) lay within 10 to 20%. Moreover, the “decrease in cell growth of human cell lines” value in [1] (concentrations up to 10 μM) was “no decrease in cell growth”. Moreover, the “reduction in PKC activity” value in the test with Protein Kinase C (PKC) is less than 50%. Also, the “potency on src kinase activity compared with PDGFR kinase activity” value (from here on “potency … compared with PDGFR kinase activity”) at src-kinase is reported as “selective for inhibiting PDGFR kinase activity”. Besides, the IC (maximal) at human beta PDGFR (read-out: concentration at which inhibition of beta PDGFR autophosphorylation was maximal) amounted to 5 µM. Moreover, the “inhibition of FGFR-1 autophosphorylation” value against human FGFR-1 (concentrations as high as 30 μM) is “no detectable inhibition”. The IC100 in the test on 32D-αR cells (PDGF AA 30 ng/ml, FIG. 2, read-out: concentrations at which mitogenicity was completely inhibited) is greater than 1 µM. In addition, on Protein Kinase A (PKA) (read-out: reduction in PKA activity), the inhibition at 40 µM is less than 50%.
For the molecule `O=C(Nc1cc(-c2ccc(Cl)cc2)n[nH]1)c1ccccc1` [Compound 45], the “inhibition of protein kinase activity of αPDGFR” value against human alpha PDGFR is “exhibited the best activities”. For the same molecule, the “inhibition of protein kinase activity of βPDGFR” value against human beta PDGFR was “exhibited the best activities”.
With `O=C(Nc1cc(-c2cccs2)n[nH]1)c1ccccc1` [Compound 46], at human alpha PDGFR, the “inhibition of protein kinase activity of αPDGFR” value is recorded as “exhibited the best activities”. Besides, on human beta PDGFR, the “inhibition of protein kinase activity of βPDGFR” value is recorded as “exhibited the best activities”.
Take `COC(=O)[C@@]1(O)C[C@H]2O[C@]1(C)n1c3ccccc3c3c4c(c5c6ccccc6n2c5c31)C(=O)NC4` [Compound K252a]: the IC50 on src-kinase (read-out: IC50 src-kinase, recombinant c-src, 50 μM ATP) was 20 nM; on src-kinase (read-out: src kinase IC50, recombinant c-src), 20 nM; against EGFR, 1000 nM; with HR5-βR cells (96 h, read-out: IC50 HRS-βR), 130 nM; with HR5-βR cells (read-out: IC50 HR5-βR cell growth), 130 nM. Further, at src-kinase, the “potency … compared with PDGFR kinase activity” value is “equally or more potent at inhibiting src kinase activity as they are PDGFR kinase activity”. Further, in the test on HR5-βR cells, the “HR5-βR growth inhibition compared with inhibition of PDGFR phosphorylation” value is reported as “lower concentrations than those required to inhibit PDGFR phosphorylation”.
Consider `CN[C@@H]1C[C@H]2O[C@@](C)([C@@H]1OC)n1c3ccccc3c3c4c(c5c6ccccc6n2c5c31)C(=O)NC4` [Staurosporin, reference compound], for which the “growth of all of the human cell lines” value in test [1] (0.01 μM) is listed as “completely blocked”. Also, the “potency … compared with PDGFR kinase activity” value on src-kinase is on record as “equally or more potent at inhibiting src kinase activity as they are PDGFR kinase activity”.
